Results taken from paper PMC9687571, “Anti-Inflammatory Activity of Olive Oil Polyphenols—The Role of Oleacein and Its Metabolites” (Biomedicines, 2022).
Values joined by “and” are separate entries in the source; they are usually repeats but may differ in a detail not shown here. Equal entries are not always repeated. Where two headings read alike, the source gives them in different places.

Tests used:
[1] = target: PLA2 + 5-LOX coupled system (Apis mellifera, UniProt P00630); assay: biochemical; format: biochemical, Apis mellifera bee venom (PLA2), Glycine max (5-LOX); conditions: for IC50: read-out: IC50 PLA2 + 5-LOX coupled system; for inhibition at 100 µM: read-out: inhibition of PLA2 + 5-LOX coupled system
Chain of PLA2 + 5-LOX coupled system (P00630 whole entry, looked up): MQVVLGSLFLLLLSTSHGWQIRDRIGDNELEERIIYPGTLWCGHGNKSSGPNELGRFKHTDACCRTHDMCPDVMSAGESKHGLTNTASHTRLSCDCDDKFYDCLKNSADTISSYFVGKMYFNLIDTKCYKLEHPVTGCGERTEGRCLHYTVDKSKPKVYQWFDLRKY

5-LOX = target: T1, 5-LOX (Glycine max, UniProt P08170); assay: 5-LOX inhibition assay; format: biochemical, Glycine max (soybean); conditions: for inhibition at 100 µM: read-out: inhibition of the 5-LOX enzyme; for IC50: read-out: IC50 5-LOX pure enzyme
T1 construct: purchased Sigma-Aldrich
T1 sequence (P08170 1-839): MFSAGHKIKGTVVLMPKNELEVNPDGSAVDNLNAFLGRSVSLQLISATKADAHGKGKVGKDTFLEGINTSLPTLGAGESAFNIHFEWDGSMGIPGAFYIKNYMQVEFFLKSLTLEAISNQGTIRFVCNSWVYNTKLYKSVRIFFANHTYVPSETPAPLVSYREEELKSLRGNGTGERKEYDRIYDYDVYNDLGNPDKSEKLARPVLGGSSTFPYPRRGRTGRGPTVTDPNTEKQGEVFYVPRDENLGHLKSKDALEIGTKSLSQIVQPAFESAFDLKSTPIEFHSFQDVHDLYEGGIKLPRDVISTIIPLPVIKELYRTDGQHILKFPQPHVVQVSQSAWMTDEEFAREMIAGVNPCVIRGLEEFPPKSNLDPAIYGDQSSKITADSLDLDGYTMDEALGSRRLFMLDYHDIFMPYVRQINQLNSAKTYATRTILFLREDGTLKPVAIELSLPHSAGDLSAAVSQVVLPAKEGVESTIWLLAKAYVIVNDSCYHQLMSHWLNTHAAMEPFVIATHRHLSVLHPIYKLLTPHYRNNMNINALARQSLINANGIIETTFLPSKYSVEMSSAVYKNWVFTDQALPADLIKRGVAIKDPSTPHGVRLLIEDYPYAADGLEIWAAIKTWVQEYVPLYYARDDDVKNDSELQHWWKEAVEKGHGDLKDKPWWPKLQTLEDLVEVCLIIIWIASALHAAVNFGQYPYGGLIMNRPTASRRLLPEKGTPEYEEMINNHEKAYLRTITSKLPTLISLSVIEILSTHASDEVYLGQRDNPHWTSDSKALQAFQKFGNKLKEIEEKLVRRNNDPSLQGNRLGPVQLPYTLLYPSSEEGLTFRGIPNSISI

COX-1 = target: T2, COX-1 (Ovis aries, UniProt P05979); assay: COX-1 inhibition assay (COX fluorescent inhibitor assay kit); format: biochemical
T2 construct: purchased Cayman Chemical
T2 sequence (P05979 25-600): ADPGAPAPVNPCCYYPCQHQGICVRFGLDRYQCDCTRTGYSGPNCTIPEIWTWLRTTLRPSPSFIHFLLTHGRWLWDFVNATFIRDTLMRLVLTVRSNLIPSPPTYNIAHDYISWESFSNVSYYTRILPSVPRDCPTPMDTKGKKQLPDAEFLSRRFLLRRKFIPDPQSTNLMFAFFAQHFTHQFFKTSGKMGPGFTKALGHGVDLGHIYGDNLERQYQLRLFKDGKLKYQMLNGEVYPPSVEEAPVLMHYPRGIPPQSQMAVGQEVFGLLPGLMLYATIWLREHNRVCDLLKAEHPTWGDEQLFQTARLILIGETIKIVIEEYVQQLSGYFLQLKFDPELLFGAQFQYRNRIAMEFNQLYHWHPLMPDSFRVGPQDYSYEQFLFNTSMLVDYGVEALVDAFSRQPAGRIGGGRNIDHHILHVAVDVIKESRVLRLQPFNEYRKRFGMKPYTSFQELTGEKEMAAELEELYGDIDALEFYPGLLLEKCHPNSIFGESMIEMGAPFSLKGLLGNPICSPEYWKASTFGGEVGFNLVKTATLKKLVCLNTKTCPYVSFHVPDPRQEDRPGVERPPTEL
Experimental: (§1) COX assays were performed using the COX fluorescent inhibitor assay kit with some modifications. This assay was based on the reaction between prostaglandin G2 (PGG2), product of COX activity, and 10-acetyl-3,7-dihydroxyphenoxazine (ADHP), producing a highly fluorescent compound, resorufin. Briefly, 60 µL of Tris-HCl buffer (100 mM, pH 8.0), 5 µL of hemin, 5 µL of COX (COX-1 or COX-2) and 5 µL of increasing concentrations of each compound (6.25–100 µM) were added to each well in a black 96-well plate. After 5 min, at room temperature, the reaction started by adding 5 µL of ADHP and 20 µL of substrate (AA 0.5 mM with KOH 2.5 mM) in each well. After 3 min, the fluorescence was measured at 590 nm, setting the excitation wavelength at 535 nm, using a multiplate reader Synergy H1 Biotek. The results were expressed as % of COX inhibition and correspond to the mean ± SEM of four independent assays, each performed in duplicate. SC-560 was used as the positive control for COX-1 and Dup-697 was used as the positive control for COX-2 assay.

COX-2 = target: T3, COX-2 (Homo sapiens, UniProt P35354); assay: COX-2 inhibition assay (COX fluorescent inhibitor assay kit); format: biochemical
T3 construct: purchased Cayman Chemical
T3 sequence (P35354 18-604): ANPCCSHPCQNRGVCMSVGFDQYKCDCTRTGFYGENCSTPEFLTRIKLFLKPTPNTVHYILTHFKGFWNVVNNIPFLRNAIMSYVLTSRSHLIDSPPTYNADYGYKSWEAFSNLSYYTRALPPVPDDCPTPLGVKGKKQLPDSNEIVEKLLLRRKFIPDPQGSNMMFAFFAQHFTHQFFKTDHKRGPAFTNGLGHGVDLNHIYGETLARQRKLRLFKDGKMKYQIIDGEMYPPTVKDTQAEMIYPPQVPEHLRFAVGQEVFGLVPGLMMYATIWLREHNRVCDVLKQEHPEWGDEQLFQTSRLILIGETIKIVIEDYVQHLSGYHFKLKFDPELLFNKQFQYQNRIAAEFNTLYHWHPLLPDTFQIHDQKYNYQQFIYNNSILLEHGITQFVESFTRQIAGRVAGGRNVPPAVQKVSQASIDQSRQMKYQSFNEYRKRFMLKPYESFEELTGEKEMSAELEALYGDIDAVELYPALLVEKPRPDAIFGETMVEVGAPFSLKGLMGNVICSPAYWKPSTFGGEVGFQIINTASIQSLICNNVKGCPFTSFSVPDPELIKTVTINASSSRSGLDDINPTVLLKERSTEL
Experimental: as §1

SMILES	IC50 [1] [µM]	inhibition at 100 µM [1] [%]	inhibition at 100 µM (5-LOX; 100 µM, mean ± SEM) [%]	IC50 (5-LOX) [µM]	IC50 (COX-1) [µM]	inhibitory activity on COX-2, times greater than oleocanthal (COX-2; from IC50 1.27 µM versus 16.6 µM) [times]	IC50 (COX-2; read-out: IC50 COX-2)	inhibition at 100 µM (5-LOX) [%]	IC50 (COX-2; IC50 COX-2)
C/C=C(/C=O)[C@@H](CC=O)CC(=O)OCCc1ccc(O)c(O)c1 [oleacein]	16.1	100	58.1	45	1.46	13	1.27 µM and < 3 µM		
O=c1c(O)c(-c2ccc(O)c(O)c2)oc2cc(O)cc(O)c12 [quercetin, reference compound]			59.5						
CC(=O)OCCc1ccc(O)c(O)c1 [AcHyTy, hydroxytyrosol acetate]	73.5	86.1		107	0.3		13.3 µM	49	
OCCc1ccc(O)c(O)c1 [HyTy, hydroxytyrosol]		18.6	22.2		0.13				2.42 µM and 2.4 µM and < 3 µM
C/C=C(/C=O)[C@@H](CC=O)CC(=O)OCCc1ccc(O)cc1 [oleocanthal, reference compound]					< 0.1		16.6 µM		
